Values quoted from earlier work, collected in patent US20020142346A1, “Binding compounds and methods for identifying binding compounds” (priority 2000, published 2002).

Experiments:
[1] = target: Src; details: binding domain Src; preferred peptide
[2] = target: T1, SH2 (src) (Homo sapiens, UniProt P12931); details: binding domain SH2 (src); preferred peptide
T1 construct: SH2 (src)

Row | Kd [2] [nM] | Substance | Kd [1] [nM]
1 | – | EPQpYEEIPIYLK | 80
2 | 100 | PYEEIY | –
